From patent US7727980B2, “Tricyclic androgen receptor modulator compounds and methods” (priority 2001, dated 2010)
Where two headings read alike, the source gives them in different places.

What was measured:
human AR [1] = target: T1, human AR (Homo sapiens, UniProt P10275); assay: Co-transfection assay, AR agonist activity, CV-1 cells; assay type: cell-based; parameters: expressed in transfected cells; host or cells: CV-1 cells (African green monkey kidney fibroblasts), transient transfection with pRShAR; settings: for AR Agonist CV-1 Cells Efficacy (%): percent maximal response relative to reference agonist DHT
T1 sequence (P10275 1-920): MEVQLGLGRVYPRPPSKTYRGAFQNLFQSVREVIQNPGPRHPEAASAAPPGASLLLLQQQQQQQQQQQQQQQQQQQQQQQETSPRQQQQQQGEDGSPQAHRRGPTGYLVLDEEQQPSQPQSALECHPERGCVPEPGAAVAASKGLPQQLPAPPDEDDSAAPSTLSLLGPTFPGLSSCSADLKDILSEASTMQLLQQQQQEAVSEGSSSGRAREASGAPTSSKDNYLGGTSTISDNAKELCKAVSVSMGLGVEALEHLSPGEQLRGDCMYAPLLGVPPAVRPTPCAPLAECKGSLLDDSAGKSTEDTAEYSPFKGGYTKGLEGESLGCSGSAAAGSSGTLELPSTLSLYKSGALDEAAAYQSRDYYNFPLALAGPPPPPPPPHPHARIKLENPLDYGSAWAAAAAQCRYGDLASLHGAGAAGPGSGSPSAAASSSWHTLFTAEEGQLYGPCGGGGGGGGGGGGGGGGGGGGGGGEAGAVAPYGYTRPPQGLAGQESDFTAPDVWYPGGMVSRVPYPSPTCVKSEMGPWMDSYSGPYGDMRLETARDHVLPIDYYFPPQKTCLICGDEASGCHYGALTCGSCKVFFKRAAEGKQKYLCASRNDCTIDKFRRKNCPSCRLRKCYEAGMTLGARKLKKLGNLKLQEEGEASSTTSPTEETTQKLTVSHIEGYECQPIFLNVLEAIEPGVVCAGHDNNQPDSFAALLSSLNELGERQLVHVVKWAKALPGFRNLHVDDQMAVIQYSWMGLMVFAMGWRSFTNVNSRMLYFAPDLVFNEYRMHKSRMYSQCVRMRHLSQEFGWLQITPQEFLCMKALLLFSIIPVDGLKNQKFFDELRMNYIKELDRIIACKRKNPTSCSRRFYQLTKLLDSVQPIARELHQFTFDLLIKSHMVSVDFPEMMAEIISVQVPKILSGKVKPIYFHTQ
From the text: (§1) The co-transfection assay provides a method for identifying functional agonists and partial agonists which mimic, or antagonists which inhibit, the effect of native hormones and quantifying their activity for responsive IR proteins. In this regard, the co-transfection assay mimics an in vivo system in the laboratory. Importantly, activity in the co-transfection assay correlates very well with known in vivo activity, such that the co-transfection assay functions as a qualitative and quantitative predictor of a tested compounds in vivo pharmacology. See, e.g., T. Berger et al. 41 J. Steroid Biochem. Molec.
(§2) In the co-transfection assay, a cloned cDNA for an IR (e.g., human PR, AR or GR) under the control of a constitutive promoter (e.g., the SV 40 promoter) is introduced by transfection (a procedure to induce cells to take up foreign genes) into a background cell substantially devoid of endogenous IRs. This introduced gene directs the recipient cells to make the IR protein of interest. A second gene is also introduced (co-transfected) into the same cells in conjunction with the IR gene. This second gene, comprising the cDNA for a reporter protein, such as firefly luciferase (LUC), controlled by an appropriate hormone responsive promoter containing a hormone response element (HRE). This reporter plasmid functions as a reporter for the transcription-modulating activity of the target IR. Thus, the reporter acts as a surrogate for the products (mRNA then protein) normally expressed by a gene under control of the target receptor and its native hormone.
(§3) The co-transfection assay can detect small molecule agonists or antagonists of target IRs. Exposing the transfected cells to an agonist ligand compound increases reporter activity in the transfected cells. This activity can be conveniently measured, e.g., by increasing luciferase production, which reflects compound-dependent, IR-mediated increases in reporter transcription. […] To detect antagonists, the co-transfection assay is carried out in the presence of a constant concentration of an agonist to the target IR (e.g., progesterone for PR) known to induce a defined reporter signal. Increasing concentrations of a suspected antagonist will decrease the reporter signal (e.g., luciferase production). The co-transfection assay is therefore useful to detect both agonists and antagonists of specific IRs. Furthermore, it determines not only whether a compound interacts with a particular IR, but whether this interaction mimics (agonizes) or blocks (antagonizes) the effects of the native regulatory molecules on target gene expression, as well as the specificity and strength of this interaction.
(§4) CV-1 cells (African green monkey kidney fibroblasts) were cultured in the presence of Dulbecco's Modified Eagle Medium (DMEM) supplemented with 10% charcoal resin-stripped fetal bovine serum then transferred to 96-well microtiter plates one day prior to transfection.
(§5) The reporter plasmid, MTV-LUC, contains the cDNA for firefly luciferase (LUC) under control of the mouse mammary tumor virus (MTV) long terminal repeat, a conditional promoter containing an androgen response element. See e.g., Berger et al. supra. In addition, pRS-β-Gal, coding for constitutive expression of E. coli β-galactosidase (β-Gal), was included as an internal control for evaluation of transfection efficiency and compound toxicity.
(§6) Six hours after transfection, media was removed and the cells were washed with phosphate-buffered saline (PBS). […] Three to four replicates were used for each sample. Transfections and subsequent procedures were performed on a Biomek 1000 automated laboratory work station.
(§7) After 40 hours, the cells were washed with PBS, lysed with a Triton X-100-based buffer and assayed for LUC and β-Gal activities using a luminometer or spectrophotometer, respectively. For each replicate, the normalized response (NR) was calculated as: LUC response/β-Gal rate • where β-Gal rate=β-Gal·1×10^−5/β-Gal incubation time.

human AR [2] = target: T1, human AR; assay: Co-transfection assay, AR antagonist activity in presence of DHT, CV-1 cells; assay type: cell-based; parameters: expressed in transfected cells; host or cells: CV-1 cells (African green monkey kidney fibroblasts), transient transfection with pRShAR; settings: CV-1 cells; for IC50: antagonist potency or IC50, DHT at its EC50 concentration; for AR Antagonist CV-1 Cells Efficacy (%): percent maximal inhibition, DHT at its EC50 concentration
From the text: as §1, §2, §3, §4, §5, §6, §7

human AR [3] = target: T1, human AR; assay: AR whole cell competitive binding assay (3H-DHT), transfected COS-1 cells; parameters: expressed in transfected cells; transient transfection with pRShAR; settings: COS-1 cells, 1 nM 3H-DHT, Cheng-Prusoff from IC50
Method: AR Binding: For the whole cell binding assay, COS-1 cells in 96-well microtiter plates containing DMEM-10% FBS were transfected as described above with the following plasmid DNA: pRShAR (2 ng/well), pRS-β-Gal (50 ng/well) and pGEM (48 ng/well). Six hours after transfection, media was removed, the cells were washed with PBS and fresh media was added. The next day, the media was changed to DMEM-serum free to remove any endogenous ligand that might be complexed with the receptor in the cells.
Three replicates were used for each sample. […] The remaining media was removed, the cells were washed three times with PBS to remove unbound ligand and cells were lysed with a Triton X-100-based buffer.
For the saturation analyses, the difference between the total binding and the nonspecific binding, normalized by the β-Gal rate, was defined as specific binding. […] The Ki values were determined by application of the Cheng-Prusoff equation to the IC50 values, where: […]
After correcting for non-specific binding, IC50 values were determined. […] The IC50 value was determined graphically from a log-logit plot of the data. The Ki values were determined by application of the Cheng-Prusoff equation to the IC50 values, the labeled ligand concentration and the Kd of the labeled ligand.

[4] = agonist potency or EC50, read-out: AR Agonist CV-1 Cells Potency
[5] = read-out: AR Antagonist CV-1 Cells Potency
[6] = AR Agonist CV-1 Cells Potency (nM), agonist potency or EC50
[7] = AR Antagonist CV-1 Cells Potency (nM)

| Compound | EC50 (human AR [1]; [4]) [nM] | AR Agonist CV-1 Cells Efficacy (%) (human AR [1]) | IC50 (human AR [2]; [5]) [nM] | AR Antagonist CV-1 Cells Efficacy (%) (human AR [2]) | Ki (human AR [3]; read-out: AR Binding Ki) [nM] | EC50 (human AR [1]; [6]) [nM] | IC50 (human AR [2]; [7]) [nM] | Ki (human AR [3]; AR Binding Ki (nM)) [nM] |
| --- | --- | --- | --- | --- | --- | --- | --- | --- |
| 5-Allyl-6-methyl-4-trifluoromethyl-7H-pyrrolo[3,2-f]quinolin-2(1H)-one [Compound 114] | > 10000 | na (na = not active (i.e. efficacy of <20 and potency of >10,000)) | 6.6 | 81% | 81 |  |  |  |
| 5-Ethyl-6-propyl-7-(2,2,2-trifluoroethyl)-4-trifluoromethyl-7H-pyrrolo[3,2-f]quinolin-2(1H)-one [Compound 155] | 9.4 | 59% | > 10000 | na (na = not active (i.e. efficacy of <20 and potency of >10,000)) | 7.4 |  |  |  |
| 5-Isopropyl-6-methyl-4-trifluoromethyl-7H-pyrrolo[3,2-f]quinolin-2(1H)-one [Compound 113] | > 10000 | na (na = not active (i.e. efficacy of <20 and potency of >10,000)) | 316 | 65% | 529 |  |  |  |
| 6-(1-Methoxyethyl)-5-methyl-7-(2,2,2-trifluoroethyl)-4-trifluoromethyl-7H-pyrrolo[3,2-f]quinolin-2(1H)-one [Compound 172] | 19 | 89% | > 10000 | na (na = not active (i.e. efficacy of <20 and potency of >10,000)) | 12 |  |  |  |
| 6-Ethyl-5-methyl-7-(2,2,2-trifluoroethyl)-7H-pyrrolo[3,2-f]quinolin-2(1H)-one [Compound 151] | 120 | 36% | 5.9 | 57% | 48 |  |  |  |
| 6-Methyl-4-trifluoromethyl-7H-pyrrolo[3,2-f]quinolin-2(1H)-one [Compound 112] | > 10000 | na (na = not active (i.e. efficacy of <20 and potency of >10,000)) | 10 | 75% | 119 |  |  |  |
| 6-Methyl-7-(2,2,2-trifluoroethyl)-4-trifluoromethyl-7H-pyrrolo[3,2-f]quinolin-2(1H)-one [Compound 152] | 4.9 | 74% | > 10000 | na (na = not active (i.e. efficacy of <20 and potency of >10,000)) | 67 |  |  |  |
| O=c1cc(C(F)(F)F)c2c3c(ccc2[nH]1)N(CC(F)(F)F)C1CCCC31 (racemic) [Compound 119, (±)-4c,5,6,7,7a(cis),8-Hexahydro-8-(2,2,2-trifluoroethyl)-4-trifluoromethylcyclopentano-[g]pyrrolo[3,2-f]quinolin-2(1H)-one] |  | 94% |  | na (na = not active (i.e. efficacy of <20 and potency of >10,000)) |  | 2.5 | > 10000 | 2.6 |
| O=c1cc(C(F)(F)F)c2cc3c(cc2[nH]1)C1CCCC1N3CC(F)(F)F (racemic) [Compound 120, (±)-6,6a,7,8,9,9a(cis)-Hexahydro-6-(2,2,2-trifluoroethyl)-4-trifluoromethylcyclopentano-[i]pyrrolo[2,3-g]quinolin-2(1H)-one] |  | 117% |  | na (na = not active (i.e. efficacy of <20 and potency of >10,000)) |  | 4.5 | > 10000 | 12 |
| CCN1c2ccc3[nH]c(=O)cc(C(F)(F)F)c3c2C2CCCC21 (racemic) [Compound 121, (±)-4c,5,6,7,7a(cis),8-Hexahydro-8-ethyl-4-trifluoromethylcyclopentano-[g]pyrrolo[3,2-f]quinolin-2(1H)-one] |  | 97% |  | na (na = not active (i.e. efficacy of <20 and potency of >10,000)) |  | 43 | > 10000 | 7.6 |
